Target: 5HT7 receptors (Homo sapiens (Human), UniProt P34969)
Experiment: Radiolabel Binding Studies for Serotonin 5-HT7 Receptors, Method 2 ([3H]-5HT competition; Ki, and percent inhibition at 10 μM)
Settings: single concentration 10 uM; inhibition of radioligand binding to 5HT7 receptors; read-out: 5-HT7 % inhib @ 10 uM
Procedure: A solution of the compound of the disclosure to be tested is prepared as a 1-mg/ml stock in Assay Buffer or DMSO according to its solubility. A similar stock of the reference compound chlorpromazine is also prepared as a positive control. Eleven dilutions (5× assay concentration) of the compound of the disclosure and chlorpromazine are prepared in the Assay Buffer by serial dilution to yield final corresponding assay concentrations ranging from 10 pM to 10 μM.
A stock concentration of 5 nM [^3H]-5-Hydroxytryptamine ([^3H]-5HT) is prepared in 50 mM Tris-HCl, 10 mM MgCl2, 1 mM EDTA, pH 7.4 (Assay Buffer). Aliquots (50 μl) of radioligand are dispensed into the wells of a 96-well plate containing 100 al of Assay Buffer. Duplicate 50-μl aliquots of the compound of the disclosure test and chlorpromazine positive control reference compound serial dilutions are added.
Membrane fractions of cells expressing recombinant 5HT7 receptors (50 μL) are dispensed into each well. The membranes are prepared from stably transfected cell lines expressing 5HT7 receptors cultured on 10-cm plates by harvesting PBS-rinsed monolayers, resuspending and lysing in chilled, hypotonic 50 mM Tris-HCl, pH 7.4, centrifuging at 20,000×g, decanting the supernatant and storing at −80° C.; the membrane preparations are resuspended in 3 ml of chilled Assay Buffer and homogenized by several passages through a 26 gauge needle before using in the assay.
The 250-μl reactions are incubated at room temperature for 1.5 hours, then harvested by rapid filtration onto 0.3% polyethyleneimine-treated, 96-well filter mats using a 96-well Filtermate harvester. Four rapid 500-μl washes are performed with chilled Assay Buffer to reduce non-specific binding. The filter mats are dried, then scintillant is added to the filters and the radioactivity retained on the filters is counted in a Microbeta scintillation counter.
Raw data (dpm) representing total radioligand binding (i.e., specific+non-specific binding) are plotted as a function of the logarithm of the molar concentration of the competitor (i.e., test or reference compound). Non-linear regression of the normalized (i.e., percent radioligand binding compared to that observed in the absence of test or reference compound) raw data is performed in Prism 4.0 (GraphPad Software) using the built-in three parameter logistic model describing ligand competition binding to radioligand-labeled sites: y=bottom+[(top−bottom)/(1+10×−log IC50)] where bottom equals the residual radioligand binding measured in the presence of 10 μM reference compound (i.e., non-specific binding) and top equals the total radioligand binding observed in the absence of competitor. The log IC50 (i.e., the log of the ligand concentration that reduces radioligand binding by 50%) is thus estimated from the data and used to obtain the Ki by applying the Cheng-Prusoff approximation: Ki=IC50/(1+[ligand]/KD) where [ligand] equals the assay radioligand concentration and KD equals the affinity constant of the radioligand for the target receptor.
Compounds of the disclosure are also screened at a single concentration of 10 μM using the same method described for the Radiolabel Binding Studies for Serotonin 5HT7 receptors to determine the percent inhibition of [^3H]-5HT binding.

Sequence of 5HT7 receptors (P34969 whole entry): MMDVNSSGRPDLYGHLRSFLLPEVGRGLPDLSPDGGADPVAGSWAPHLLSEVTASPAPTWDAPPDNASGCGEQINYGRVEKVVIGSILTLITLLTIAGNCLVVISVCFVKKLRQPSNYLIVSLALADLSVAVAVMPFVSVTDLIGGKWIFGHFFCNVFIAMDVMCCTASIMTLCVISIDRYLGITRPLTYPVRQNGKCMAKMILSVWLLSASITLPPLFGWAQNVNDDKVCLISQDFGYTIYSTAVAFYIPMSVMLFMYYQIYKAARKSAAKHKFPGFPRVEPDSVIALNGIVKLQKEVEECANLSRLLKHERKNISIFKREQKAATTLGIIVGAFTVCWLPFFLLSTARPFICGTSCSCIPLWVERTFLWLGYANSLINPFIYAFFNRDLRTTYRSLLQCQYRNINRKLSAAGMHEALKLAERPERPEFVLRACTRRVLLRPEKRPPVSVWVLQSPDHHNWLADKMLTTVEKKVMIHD

inhibition at 10 µM [%]	SMILES
96.5	Cc1ccc(N2CCN(CCC3CC4(CCN(Cc5ccccc5)CC4)C(=O)O3)CC2)cc1 (stereo not shown) [Entry 1]
100	Cc1nc2cccc(N3CCN(CCC4CC5(CCN(S(C)(=O)=O)CC5)C(=O)O4)CC3)c2[nH]1 (stereo not shown) [Entry 8]
90	COC(=O)N1CCC2(CC1)CC(CCN1CCN(c3ccc(C)cc3)CC1)OC2=O (stereo not shown) [Entry 3]
88.8	Cc1ccc(N2CCN(CCC3CC4(CCNCC4)C(=O)O3)CC2)cc1 (stereo not shown) [Entry 2]
90.5	Cc1ccc(N2CCN(CCC3CC4(CCN(S(C)(=O)=O)CC4)C(=O)O3)CC2)cc1 (stereo not shown) [Entry 6]
88.5	CC(=O)N1CCC2(CC1)CC(CCN1CCN(c3ccc(C)cc3)CC1)OC2=O (stereo not shown) [Entry 4]
91.6	CNC(=O)N1CCC2(CC1)CC(CCN1CCN(c3ccc(C)cc3)CC1)OC2=O (stereo not shown) [Entry 5]
